Tests used:
[1] = system: barnyardgrass; assay: Test A preemergence; assay type: in vivo, Echinochloa crus-galli; conditions: for Barnyardgrass plant response rating: 500 g ai/ha
Method in brief: (§1)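 Visual 0–100 rating (100 = complete control) taken about 10 d post-treatment relative to untreated checks. Preemergence: directed soil spray on sown loam/sand pots. Postemergence: seedlings 2–10 cm, 1–2 leaf. Non-phytotoxic solvent formulation with surfactant.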

[2] = system: kochia; assay: Test A preemergence; assay type: in vivo, Kochia scoparia; conditions: for Kochia plant response rating: 500 g ai/ha
Method in brief: as §1

[3] = system: ragweed; assay: Test A preemergence; assay type: in vivo, Ambrosia elatior; conditions: for Ragweed plant response rating: 500 g ai/ha
Method in brief: as §1

[4] = system: Italian ryegrass; assay: Test A preemergence; assay type: in vivo, Lolium multiflorum; conditions: for Ryegrass, Italian plant response rating: 500 g ai/ha
Method in brief: as §1

[5] = system: giant foxtail; assay: Test A preemergence; assay type: in vivo, Setaria faberii; conditions: for Foxtail, Giant plant response rating: 500 g ai/ha
Method in brief: as §1

[6] = system: pigweed; assay: Test A preemergence; assay type: in vivo, Amaranthus retroflexus; conditions: for Pigweed plant response rating: 500 g ai/ha
Method in brief: as §1

[7] = system: barnyardgrass; assay: Test A postemergence; assay type: in vivo, Echinochloa crus-galli
Method in brief: as §1

[8] = system: kochia; assay: Test A postemergence; assay type: in vivo, Kochia scoparia
Method in brief: as §1

[9] = system: ragweed; assay: Test A postemergence; assay type: in vivo, Ambrosia elatior
Method in brief: as §1

[10] = system: Italian ryegrass; assay: Test A postemergence; assay type: in vivo, Lolium multiflorum
Method in brief: as §1

[11] = system: giant foxtail; assay: Test A postemergence; assay type: in vivo, Setaria faberii
Method in brief: as §1

[12] = system: pigweed; assay: Test A postemergence; assay type: in vivo, Amaranthus retroflexus
Method in brief: as §1

[13] = system: wheat; assay: Test A postemergence; assay type: in vivo, Triticum aestivum
Method in brief: as §1

[14] = system: corn; assay: Test A postemergence; assay type: in vivo, Zea mays
Method in brief: as §1

[15] = system: blackgrass; assay: Test A postemergence; assay type: in vivo, Alopecurus myosuroides
Method in brief: as §1

[16] = system: galium; assay: Test A postemergence; assay type: in vivo, Galium aparine
Method in brief: as §1

[17] = system: rice; assay: Test B flooded paddy test; assay type: in vivo, Oryza sativa; conditions: Flood, 250 g ai/ha; 0 to 100 scale where 0 is no effect and 100 is complete control
Method in brief: (§2)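 Plants at 2-leaf stage; pots flooded to 3 cm above soil and compound applied directly into paddy water, depth held throughout. After 13 to 15 days in greenhouse, visual rating versus controls on 0 (no effect) to 100 (complete control) scale.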

[18] = system: sedge, umbrella; assay: Test B flooded paddy test; assay type: in vivo, Cyperus difformis; conditions: Flood, 250 g ai/ha; 0 to 100 scale where 0 is no effect and 100 is complete control
Method in brief: as §2

[19] = system: Heteranthera limosa; assay: Test B flooded paddy test; assay type: in vivo; conditions: Flood, 250 g ai/ha; 0 to 100 scale where 0 is no effect and 100 is complete control
Method in brief: as §2

[20] = system: barnyardgrass; assay: Test B flooded paddy test; assay type: in vivo, Echinochloa crus-galli; conditions: Flood, 250 g ai/ha; 0 to 100 scale where 0 is no effect and 100 is complete control
Method in brief: as §2

[21] = 125 g ai/ha, 0 to 100 scale where 0 is no effect and 100 is complete control
[22] = 0 to 100 scale where 0 is no effect and 100 is complete control
[23] = 500 g ai/ha, 0 to 100 scale where 0 is no effect and 100 is complete control
[24] = 31 g ai/ha, 0 to 100 scale where 0 is no effect and 100 is complete control, visual, approximately 10 days
[25] = 31 g ai/ha, 0 to 100 scale, 0 no effect, 100 complete control
[26] = 125 g ai/ha, 0 to 100 scale, 0 no effect, 100 complete control
[27] = 0 to 100 scale, 0 no effect, 100 complete control, approx. 10 days

SMILES: CC(C)c1cnc(Oc2cccc(C#N)c2-n2cc(Br)cn2)nc1 [Compound 130]
- Plant response rating, Barnyardgrass [1, 21]: 0
- Barnyardgrass plant response rating [1, 22]: 0
- Plant response rating, Kochia [2, 21]: 0
- Kochia plant response rating [2, 22]: 0
- Plant response rating, Ragweed [3, 21]: 0
- Ragweed plant response rating [3, 22]: 0
- Plant response rating, Ryegrass, Italian [4, 21]: 0
- Ryegrass, Italian plant response rating [4, 22]: 0
- Plant response rating, Foxtail, Giant [5, 21]: 0
- Foxtail, Giant plant response rating [5, 22]: 0
- Plant response rating, Pigweed [6, 21]: 0
- Pigweed plant response rating [6, 22]: 0
- Barnyardgrass plant response rating [7, 21]: 0
- Plant response rating, Barnyardgrass [7, 23]: 0
- Kochia plant response rating [8, 21]: 0
- Plant response rating, Kochia [8, 23]: 0
- Ragweed plant response rating [9, 21]: 0
- Plant response rating, Ragweed [9, 23]: 0
- Ryegrass, Italian plant response rating [10, 21]: 0
- Plant response rating, Ryegrass, Italian [10, 23]: 0
- Foxtail, Giant plant response rating [11, 21]: 0
- Plant response rating, Foxtail, Giant [11, 23]: 0
- Pigweed plant response rating [12, 21]: 0
- Plant response rating, Pigweed [12, 23]: 0
- Wheat plant response rating [13, 21]: 0
- Plant response rating, Wheat [13, 23]: 0
- Corn plant response rating [14, 21]: 0
- Plant response rating, Corn [14, 23]: 0
- Blackgrass plant response rating [15, 21]: 0
- Plant response rating, Blackgrass [15, 23]: 0
- Galium plant response rating [16, 21]: 0
- Plant response rating, Galium [16, 23]: 0
- Plant response rating, Rice [17]: 0
- Plant response rating, Sedge, Umbrella [18]: 0
- Plant response rating, Ducksalad [19]: 0
- Plant response rating, Barnyardgrass [20]: 0

SMILES: O=Cc1cn(-c2ccccc2Oc2ncc(Cl)cn2)nn1 [Compound 272]
- Plant response rating, Barnyardgrass [1, 24]: 0
- Barnyardgrass plant response rating (0 to 100 scale, 0 is no effect, 100 is complete control) ([1]; 125 g ai/ha): 0
- Plant response rating, Kochia [2, 24]: 0
- Kochia plant response rating (0 to 100 scale) ([2]; 125 g ai/ha): 0
- Plant response rating, Ragweed [3, 24]: 0
- Ragweed plant response rating (0 to 100 scale) ([3]; 125 g ai/ha): 0
- Plant response rating, Ryegrass, Italian [4, 24]: 0
- Ryegrass, Italian plant response rating (0 to 100 scale) ([4]; 125 g ai/ha): 0
- Plant response rating, Foxtail, Giant [5, 24]: 0
- Foxtail, Giant plant response rating (0 to 100 scale) ([5]; 125 g ai/ha): 0
- Plant response rating, Pigweed [6, 24]: 0
- Pigweed plant response rating (0 to 100 scale) ([6]; 125 g ai/ha): 0
- Plant response rating, Barnyardgrass [7, 25]: 0
- Plant response rating, Barnyardgrass [7, 26]: 0
- Plant response rating, Kochia [8, 25]: 0
- Plant response rating, Kochia [8, 26]: 0
- Plant response rating, Ragweed [9, 25]: 0
- Plant response rating, Ragweed [9, 26]: 0
- Plant response rating, Ryegrass, Italian [10, 25]: 0
- Plant response rating, Ryegrass, Italian [10, 26]: 0
- Plant response rating, Foxtail, Giant [11, 25]: 0
- Plant response rating, Foxtail, Giant [11, 26]: 0
- Plant response rating, Pigweed [12, 25]: 0
- Plant response rating, Pigweed [12, 26]: 0
- Plant response rating, Wheat [13, 25]: 0
- Plant response rating, Wheat [13, 26]: 0
- Plant response rating, Corn [14, 25]: 0
- Plant response rating, Corn [14, 26]: 0
- Plant response rating, Blackgrass [15, 25]: 0
- Plant response rating, Blackgrass [15, 26]: 0
- Plant response rating, Galium [16, 25]: 0
- Plant response rating, Galium [16, 26]: 0
- Plant response rating, Rice [17]: 0
- Plant response rating, Sedge, Umbrella [18]: 0
- Plant response rating, Ducksalad [19]: 0
- Plant response rating, Barnyardgrass [20]: 0

SMILES: N#Cc1cccc(Oc2ncc(I)cn2)c1-n1cc(I)cn1 [Compound 87]
- Plant response rating, Barnyardgrass [1, 21]: 0
- Barnyardgrass plant response rating [1, 27]: 10
- Plant response rating, Kochia [2, 21]: 30
- Kochia plant response rating [2, 27]: 60
- Plant response rating, Ragweed [3, 21]: 10
- Ragweed plant response rating [3, 27]: 20
- Plant response rating, Ryegrass, Italian [4, 21]: 0
- Ryegrass, Italian plant response rating [4, 27]: 0
- Plant response rating, Foxtail, Giant [5, 21]: 60
- Foxtail, Giant plant response rating [5, 27]: 70
- Plant response rating, Pigweed [6, 21]: 90
- Pigweed plant response rating [6, 27]: 100
- Plant response rating, Barnyardgrass [7, 21]: 20
- Plant response rating, Barnyardgrass [7, 23]: 20
- Plant response rating, Kochia [8, 21]: 50
- Plant response rating, Kochia [8, 23]: 90
- Plant response rating, Ragweed [9, 21]: 50
- Plant response rating, Ragweed [9, 23]: 70
- Plant response rating, Ryegrass, Italian [10, 21]: 30
- Plant response rating, Ryegrass, Italian [10, 23]: 40
- Plant response rating, Foxtail, Giant [11, 21]: 20
- Plant response rating, Foxtail, Giant [11, 23]: 60
- Plant response rating, Pigweed [12, 21]: 60
- Plant response rating, Pigweed [12, 23]: 100
- Plant response rating, Wheat [13, 21]: 0
- Plant response rating, Wheat [13, 23]: 0
- Plant response rating, Corn [14, 21]: 20
- Plant response rating, Corn [14, 23]: 20
- Plant response rating, Blackgrass [15, 21]: 40
- Plant response rating, Blackgrass [15, 23]: 50
- Plant response rating, Galium [16, 21]: 60
- Plant response rating, Galium [16, 23]: 90
- Plant response rating, Rice [17]: 0
- Plant response rating, Sedge, Umbrella [18]: 0
- Plant response rating, Ducksalad [19]: 0
- Plant response rating, Barnyardgrass [20]: 0

SMILES: FC(F)(F)COc1cnn(-c2c(Cl)cccc2Oc2ncc(Cl)cn2)c1 [Compound 110]
- Barnyardgrass plant response rating (0 to 100 scale) ([1]; 31 g ai/ha): 30
- Plant response rating, Barnyardgrass [1, 21]: 90
- Kochia plant response rating (0 to 100 scale) ([2]; 31 g ai/ha): 20
- Plant response rating, Kochia [2, 21]: 80
- Ragweed plant response rating (0 to 100 scale) ([3]; 31 g ai/ha): 0
- Plant response rating, Ragweed [3, 21]: 10
- Ryegrass, Italian plant response rating (0 to 100 scale) ([4]; 31 g ai/ha): 0
- Plant response rating, Ryegrass, Italian [4, 21]: 20
- Foxtail, Giant plant response rating (0 to 100 scale) ([5]; 31 g ai/ha): 100
- Plant response rating, Foxtail, Giant [5, 21]: 100
- Pigweed plant response rating (0 to 100 scale) ([6]; 31 g ai/ha): 100
- Plant response rating, Pigweed [6, 21]: 100
- Plant response rating, Barnyardgrass [7, 25]: 10
- Plant response rating, Barnyardgrass [7, 21]: 90
- Plant response rating, Kochia [8, 25]: 90
- Plant response rating, Kochia [8, 21]: 100
- Plant response rating, Ragweed [9, 25]: 10
- Plant response rating, Ryegrass, Italian [10, 25]: 0
- Plant response rating, Foxtail, Giant [11, 25]: 20
- Plant response rating, Foxtail, Giant [11, 21]: 90
- Plant response rating, Pigweed [12, 25]: 100
- Plant response rating, Wheat [13, 25]: 0
- Plant response rating, Corn [14, 25]: 10
- Plant response rating, Corn [14, 21]: 50
- Plant response rating, Blackgrass [15, 25]: 20
- Plant response rating, Blackgrass [15, 21]: 80
- Plant response rating, Galium [16, 25]: 40
- Plant response rating, Galium [16, 21]: 90
- Plant response rating, Rice [17]: 0
- Plant response rating, Sedge, Umbrella [18]: 95
- Plant response rating, Ducksalad [19]: 95
- Plant response rating, Barnyardgrass [20]: 45

SMILES: COc1cccc(Oc2ncc(Cl)cn2)c1-n1cc(Cl)cn1 [Compound 169]
- Plant response rating, Barnyardgrass [1, 24]: 10
- Plant response rating, Barnyardgrass [1, 21]: 50
- Plant response rating, Kochia [2, 24]: 0
- Kochia plant response rating (0 to 100 scale) ([2]; 125 g ai/ha): 0
- Plant response rating, Ragweed [3, 24]: 0
- Ragweed plant response rating (0 to 100 scale) ([3]; 125 g ai/ha): 0
- Plant response rating, Ryegrass, Italian [4, 24]: 0
- Ryegrass, Italian plant response rating (0 to 100 scale) ([4]; 125 g ai/ha): 0
- Plant response rating, Foxtail, Giant [5, 24]: 30
- Plant response rating, Foxtail, Giant [5, 21]: 80
- Plant response rating, Pigweed [6, 24]: 0
- Pigweed plant response rating (0 to 100 scale) ([6]; 125 g ai/ha): 80
- Plant response rating, Barnyardgrass [7, 25]: 0
- Barnyardgrass plant response rating [7, 21]: 20
- Plant response rating, Kochia [8, 25]: 0
- Kochia plant response rating [8, 21]: 10
- Plant response rating, Ragweed [9, 25]: 10
- Ragweed plant response rating [9, 21]: 60
- Plant response rating, Ryegrass, Italian [10, 25]: 0
- Ryegrass, Italian plant response rating [10, 21]: 0
- Plant response rating, Foxtail, Giant [11, 25]: 0
- Foxtail, Giant plant response rating [11, 21]: 40
- Plant response rating, Pigweed [12, 25]: 10
- Pigweed plant response rating [12, 21]: 20
- Plant response rating, Wheat [13, 25]: 0
- Wheat plant response rating [13, 21]: 0
- Plant response rating, Corn [14, 25]: 0
- Corn plant response rating [14, 21]: 0
- Plant response rating, Blackgrass [15, 25]: 0
- Blackgrass plant response rating [15, 21]: 30
- Plant response rating, Galium [16, 25]: 10
- Galium plant response rating [16, 21]: 40
- Plant response rating, Rice [17]: 15
- Plant response rating, Sedge, Umbrella [18]: 75
- Plant response rating, Ducksalad [19]: 65
- Plant response rating, Barnyardgrass [20]: 25
